Drawing on US10206902B2, “Mono- or di-substituted indoles as dengue viral replication inhibitors” (priority 2014, dated 2019), this text covers CC50 and EC50 for 12 compounds.

For orientation: CC50 means the concentration at which the toxic effect on the cells reaches its halfway point. One may read the EC50 as the midpoint of the concentration-response curve.

Common to all, as to assay type: cell-based
One data set relates to Vero cells. Nature of the data set: in vitro. The conditions noted are these: African green monkey. On the procedure: In parallel, the toxicity of the compounds was assessed on the same plates. Once the read-out for the eGFP signal was done, 10 μL of resazurin, a cell viability stain, was added to all wells of the 384-well plates. The resazurin assay is based on the reduction of the blue resazurin by NADH, produced by the cells, into the highly fluorescent product, resorufin. The formation of pink fluorescent resorufin is directly related to the number of viable cells in the well. The plates were incubated for an additional 5 hours in a fully humidified incubator (37° C., 5% CO2). Next, the plates were measured on an Infinite reader (Tecan) using an excitation wavelength of 530 nm. The half maximal cytotoxic concentration (CO50) was also determined, defined as the concentration required to reduce the resazurin conversion by 50% compared to that of the cell control wells (Table 1). Finally, the selectivity index (SI) was determined for the compounds, which was calculated as followed: SI=CC50/EC50.

The subject of data set [1] is DENV-1 Djibouti strain D1/H/IMTSSA/98/606. Briefly: Tetravalent RT-qPCR assay Protocol B, serotype 1. Conditions: Dengue virus, DENV1, Vero, 168 h. As for the experimental part:
Vero cells (4×10^4) were seeded in 96-well plates. […] Following a 2 hour incubation period, the cell monolayer was washed 3 times with assay medium to remove residual, non-adsorbed virus and cultures were further incubated for either 4 days (DENV-2 NGC-Tongalike) or 7 days (DENV-1 Djibouti strain D1/H/IMTSSA/98/606, DENV-3 strain H87 prototype, DENV-4 strain H241′) in the presence of the inhibitor. Supernatant was harvested and viral RNA load was determined by real-time quantitative RT-PCR. The 50% effective concentration (EC50), which is defined as the compound concentration that is required to inhibit viral RNA replication by 50%, was determined using logarithmic interpolation (Tables 7 and 8). RNA was isolated from 100 μL supernatant with the NucleoSpin 96 Virus kit (Filter Service, Duren, Germany) as described by the manufacturer. The sequences of the TaqMan primers (DENV-For, DENV-Rev; Table 5) and TaqMan probes (DENV-Probe Table 5) were selected from non-structural gene 3 (NS3) or NS5, of the respective flaviviruses using Primer Express software (version 2.0; Applied Biosystems, Lennik, Belgium). The TaqMan probe was fluorescently labelled with 6-carboxyfluorescein (FAM) at the 5′ end as the reporter dye, and with minor groove binder (MGB) at the 3′ end as the quencher (Table 5). One-step, quantitative RT-PCR was performed in a total volume of 25 μL, containing 13.9375 μL H2O, 6.25 μL master mix (Eurogentec, Seraing, Belgium), 0.375 μL forward primer, 0.375 μL reverse primer, 1 μL probe, 0.0625 μL reverse transcriptase (Eurogentec) and 3 μL sample. RT-PCR was performed using the ABI 7500 Fast Real-Time PCR System (Applied Biosystems, Branchburg, N.J., USA) using the following conditions: 30 min at 48° C. and 10 min at 95° C., followed by 40 cycles of 15 s at 95° C. and 1 min at 60° C. The data was analyzed using the ABI PRISM 7500 SDS software (version 1.3.1; Applied Biosystems). For absolute quantification, standard curves were generated using 10-fold dilutions of template preparations of known concentrations.
(Real-time PCR tracks product formation cycle by cycle.)

The next data set can be described thus: in vitro. Conditions: African green monkey, CC50. On the procedure: Potential cytotoxic effects of the compounds were evaluated in uninfected Vero cells. Cells were seeded at 4×10^4 cells/well in a 96-well plate in the presence of two-, three- or five-fold serial dilutions (ranging from 50 μg/mL-0.0038 μg/mL, 50 μg/mL-0.0076 μg/mL, and 50 μg/mL-0.00013 μg/mL, respectively) of compound and incubated for 4 to 7 days. Culture medium was discarded and 100 μL 3-(4,5-dimethylthiazol-2-yl)-5-(3-carboxymethoxyphenyl)-2-(4-sulfophenyl)-2H-tetrazolium/phenazinemethosulfate (MTS/PMS; Promega, Leiden, The Netherlands) in PBS was added to each well. Following a 2-hour incubation period at 37° C., the optical density was determined at 498 nm. Cytotoxic activity was calculated using the following formula: % cell viability=100×(ODCompound/ODCC), where ODcompound and ODCC correspond to the optical density at 498 nm of the uninfected cell cultures treated with compound and that of uninfected, untreated cell cultures, respectively. The 50% cytotoxic concentration (i.e., the concentration that reduces the total cell number with 50%; CC50) was calculated using linear interpolation (Tables 7 and 8).

As to `COc1cc(NC(C(=O)c2c[nH]c3cc(F)ccc23)c2ccc(F)cc2OC)cc(OCCO)c1` (single isomer, unassigned) [Compound 1A, 1-(6-fluoro-1H-indol-3-yl)-2-(4-fluoro-2-methoxyphenyl)-2-((3-(2-hydroxyethoxy)-5-methoxyphenyl)amino)ethanone], the CC50 in the data set with Vero cells is 8.4 µM; in the data set “in vitro” it was 13 µM. It took 0.04 µM to reach a half-maximal effect in data set [1] (EC50).

Turning to `COc1cc(NC(C(=O)c2c[nH]c3c(C)c(F)ccc23)c2ccc(F)cc2OC)cc(OCCO)c1` (single isomer, unassigned) [Compound 2B, 2-(4-fluoro-2-methoxyphenyl)-1-(6-fluoro-7-methyl-1H-indol-3-yl)-2-((3-(2-hydroxyethoxy)-5-methoxyphenyl)amino)ethanone], the figures for the CC50 with Vero cells and in “in vitro” were 5.3 µM and 9.2 µM, respectively. A half-maximal effect in data set [1] (EC50) was put at 0.041 µM.

Compound `COc1cc(NC(C(=O)c2c[nH]c3c(C)c(Cl)ccc23)c2ccc(F)cc2OC)cc(OCCO)c1` (single isomer, unassigned) [Compound 3A, 1-(6-chloro-7-methyl-1H-indol-3-yl)-2-(4-fluoro-2-methoxyphenyl)-2-((3-(2-hydroxyethoxy)-5-methoxyphenyl)amino)ethanone] had an EC50 in data set [1] of 0.045 µM. This compound yielded a CC50 in “in vitro” of 7.6 µM.

As to `COc1cc(NC(C(=O)c2c[nH]c3cc(Cl)ccc23)c2ccc(F)cc2OC)cc(OCCO)c1` (single isomer, unassigned) [Compound 4A, 1-(6-chloro-1H-indol-3-yl)-2-(4-fluoro-2-methoxyphenyl)-2-((3-(2-hydroxyethoxy)-5-methoxyphenyl)amino)ethanone], the CC50 in the data set on Vero cells is 5.9 µM; in “in vitro”, 9.7 µM. The EC50 in data set [1] worked out at 0.027 µM.

Consider `COc1cc(NC(C(=O)c2c[nH]c3c(F)c(F)ccc23)c2ccc(F)cc2OC)cc(OCCO)c1` (single isomer, unassigned) [Compound 5B, 1-(6,7-difluoro-1H-indol-3-yl)-2-(4-fluoro-2-methoxyphenyl)-2-((3-(2-hydroxyethoxy)-5-methoxyphenyl)amino)ethanone], for which the values for the half-maximal cytotoxic concentration (CC50) with Vero cells and in the data set “in vitro” were 6.5 µM and 12 µM, respectively. Besides, the EC50 in data set [1] came out at 0.065 µM.

For the compound `COc1cc(NC(C(=O)c2c[nH]c3cc(OC)c(C)cc23)c2ccc(F)cc2OC)cc(OCCO)c1` (single isomer, unassigned) [Compound 6A, 2-(4-fluoro-2-methoxyphenyl)-2-((3-(2-hydroxyethoxy)-5-methoxyphenyl)amino)-1-(6-methoxy-5-methyl-1H-indol-3-yl)ethanone], the EC50 in data set [1] was 0.021 µM. Further, in the data set “in vitro”, it took 9.7 µM to reach half-maximal cytotoxicity (CC50).

In data set [1], `COc1cc(NC(C(=O)c2c[nH]c3cc(OC)c(F)cc23)c2ccc(F)cc2OC)cc(OCCO)c1` (single isomer, unassigned) [Compound 7A, 2-(4-fluoro-2-methoxyphenyl)-1-(5-fluoro-6-methoxy-1H-indol-3-yl)-2-((3-(2-hydroxyethoxy)-5-methoxyphenyl)amino)ethanone] had an EC50 of 0.055 µM. Moreover, the CC50 in “in vitro” was 16 µM.

For the compound `COc1cc(NC(C(=O)c2c[nH]c3c(Cl)c(OC)ccc23)c2ccc(F)cc2OC)cc(OCCO)c1` (single isomer, unassigned) [Compound 8A, 1-(7-chloro-6-methoxy-1H-indol-3-yl)-2-(4-fluoro-2-methoxyphenyl)-2-((3-(2-hydroxyethoxy)-5-methoxyphenyl)amino)ethanone], the CC50 in the data set with Vero cells came to 8.6 µM; in “in vitro”, 9.6 µM. The compound further showed an EC50 in data set [1] of 0.049 µM.

In the case of `COc1cc(NC(C(=O)c2c[nH]c3c(C)cc(F)cc23)c2ccc(F)cc2OC)cc(OCCO)c1` (single isomer, unassigned) [Compound 9B, 2-(4-fluoro-2-methoxyphenyl)-1-(5-fluoro-7-methyl-1H-indol-3-yl)-2-((3-(2-hydroxyethoxy)-5-methoxyphenyl)amino)ethanone], the CC50 stood at 5.5 µM in the data set with Vero cells and 8.8 µM in “in vitro”. Further, the EC50 in data set [1] was determined as 0.042 µM.

For `COc1cc(NC(C(=O)c2c[nH]c3cc(F)c(F)cc23)c2ccc(F)cc2OC)cc(OCCO)c1` (single isomer, unassigned) [Compound 10B, 1-(5,6-difluoro-1H-indol-3-yl)-2-(4-fluoro-2-methoxy-phenyl)-2-((3-(2-hydroxyethoxy)-5-methoxyphenyl)amino)ethanone], the half-maximal cytotoxic concentration (CC50) is 6.9 µM with Vero cells and 7.3 µM in the data set “in vitro”. Besides, the midpoint of the response in data set [1], the EC50, lay at 0.052 µM.

Take `COc1cc(NC(C(=O)c2c[nH]c3c(C)c(OC)ccc23)c2ccc(F)cc2OC)cc(OCCO)c1` (single isomer, unassigned) [Compound 11A, 2-(4-fluoro-2-methoxyphenyl)-2-((3-(2-hydroxyethoxy)-5-methoxyphenyl)amino)-1-(6-methoxy-7-methyl-1H-indol-3-yl)ethanone]: the CC50 stood at 8.9 µM in the data set with Vero cells and 11 µM in the data set “in vitro”. Also, the EC50 in data set [1] was determined as 0.023 µM.

`COc1cc(NC(C(=O)c2c[nH]c3c(F)cc(C)cc23)c2ccc(F)cc2OC)cc(OCCO)c1` (single isomer, unassigned) [Compound 12B, 2-(4-fluoro-2-methoxyphenyl)-1-(7-fluoro-5-methyl-1H-indol-3-yl)-2-((3-(2-hydroxyethoxy)-5-methoxyphenyl)amino)ethanone]: the CC50 in the data set on Vero cells was 5.5 µM; in the data set “in vitro”, 9.4 µM. The midpoint of the response in data set [1], the EC50, lay at 0.096 µM.
